Reference: the supplement of paper PMC4862054

Tests used:
Conditions in all cases: incubation time: 72 h
BT-474 [1] = test: normalised response (% of control), CellTiter-Glo; higher = more viable cells (100 = DMSO, 0 = benzethonium chloride kill control)
How it was run: (§1)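 Each value is the plate-normalised signal at one concentration of the series. Breast cancer cell lines (20 µl suspension) were incubated 72 h in 384-well plates with compound at 5 concentrations in 10-fold steps over a compound-specific 10,000-fold range. CellTox Green and then CellTiter-Glo were read, and each plate was scaled to 0.1 % DMSO (100) and a positive kill control (0).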

BT-549 [2] = test: as above
How it was run: as §1

CAL-120 [3] = test: as above
How it was run: as §1

CAL-148 [4] = test: as above
How it was run: as §1

CAL-51 [5] = test: as above
How it was run: as §1

CAL-85-1 [6] = test: as above
How it was run: as §1

DU-4475 [7] = test: as above
How it was run: as §1

HCC1143 [8] = test: as above
How it was run: as §1

HCC1599 [9] = test: as above
How it was run: as §1

HCC1937 [10] = test: as above
How it was run: as §1

HDQ-P1 [11] = test: as above
How it was run: as §1

Hs578T [12] = test: as above
How it was run: as §1

MCF-10A = test: as above
How it was run: as §1

MDA-MB-231 [13] = test: as above
How it was run: as §1

MDA-MB-436 [14] = test: as above
How it was run: as §1

MDA-MB-453 [15] = test: as above
How it was run: as §1

MDA-MB-468 [16] = test: as above
How it was run: as §1

MFM-223 [17] = test: as above
How it was run: as §1

SK-BR-3 [18] = test: as above
How it was run: as §1

BT-474 [19] = test: normalised viability (% of control), CellTiter-Blue; higher = more viable cells (100 = DMSO, 0 = benzethonium chloride kill control)
Description: (§2)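 DSRT, CellTiter-Blue viability, 72 h incubation. Signal is normalised to DMSO and benzethonium chloride controls. Value is the normalised response at dose 1.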

BT-549 [20] = test: as above
Description: as §2

CAL-120 [21] = test: as above
Description: as §2

CAL-148 [22] = test: as above
Description: as §2

CAL-51 [23] = test: as above
Description: as §2

CAL-85-1 [24] = test: as above
Description: as §2

DU-4475 [25] = test: as above
Description: as §2

HCC1143 [26] = test: as above
Description: as §2

HCC1599 [27] = test: as above
Description: as §2

HCC1937 [28] = test: as above
Description: as §2

HDQ-P1 [29] = test: as above
Description: as §2

Hs578T [30] = test: as above
Description: as §2

MDA-MB-231 [31] = test: as above
Description: as §2

MDA-MB-436 [32] = test: as above
Description: as §2

MDA-MB-453 [33] = test: as above
Description: as §2

MDA-MB-468 [34] = test: as above
Description: as §2

MFM-223 [35] = test: as above
Description: as §2

SK-BR-3 [36] = test: as above
Description: as §2

SMILES | normalised response (BT-474 [1]) | normalised response (BT-549 [2]) | normalised response (CAL-120 [3]) | normalised response (CAL-148 [4]) | normalised response (CAL-51 [5]) | normalised response (CAL-85-1 [6]) | normalised response (DU-4475 [7]) | normalised response (HCC1143 [8]) | normalised response (HCC1599 [9]) | normalised response (HCC1937 [10]) | normalised response (HDQ-P1 [11]) | normalised response (Hs578T [12]) | normalised response (MCF-10A) | normalised response (MDA-MB-231 [13]) | normalised response (MDA-MB-436 [14]) | normalised response (MDA-MB-453 [15]) | normalised response (MDA-MB-468 [16]) | normalised response (MFM-223 [17]) | normalised response (SK-BR-3 [18]) | normalised viability (BT-474 [19]) | normalised viability (BT-549 [20]) | normalised viability (CAL-120 [21]) | normalised viability (CAL-148 [22]) | normalised viability (CAL-51 [23]) | normalised viability (CAL-85-1 [24]) | normalised viability (DU-4475 [25]) | normalised viability (HCC1143 [26]) | normalised viability (HCC1599 [27]) | normalised viability (HCC1937 [28]) | normalised viability (HDQ-P1 [29]) | normalised viability (Hs578T [30]) | normalised viability (MDA-MB-231 [31]) | normalised viability (MDA-MB-436 [32]) | normalised viability (MDA-MB-453 [33]) | normalised viability (MDA-MB-468 [34]) | normalised viability (MFM-223 [35]) | normalised viability (SK-BR-3 [36])
N[C@@H](CSC(c1ccccc1)(c1ccccc1)c1ccccc1)C(=O)O [S-trityl-L-cysteine] (4 nM) | 105% | 96.5% | 106% | 103% | 81% | 101% | 95.7% | 97% | 87.5% | 92% | 103% | 95.5% | 97.6% | 100% | 85.6% | 107% | 101% | 96.9% | 99.6% | 91.1% | 85.8% | 115% | 112% | 91.3% | 122% | 116% | 143% | 108% | 89% | 96.6% | 106% | 104% | 109% | 88.6% | 101% | 105% | 88.2%
CN(C)/N=N/c1[nH]cnc1C(N)=O [Dacarbazine] (1 nM) | 101% | 101% | 94.7% | 100% | 99.1% | 96.7% | 104% | 104% | 96.7% | 101% | 96% | 107% | 100% | 105% | 122% | 116% | 102% | 103% | 99.9% | 99.6% | 108% | 89.3% | 99.7% | 87.7% | 90.2% | 104% | 92.2% | 81.7% | 108% | 105% | 106% | 94.8% | 114% | 96.5% | 103% | 101% | 106%
CC1(C)NC(=O)N(c2ccc([N+](=O)[O-])c(C(F)(F)F)c2)C1=O [Nilutamide] (1 nM) | 108% | 103% | 99.1% | 111% | 93.2% | 100% | 105% | 101% | 109% | 98.4% | 101% | 101% | 106% | 97.4% | 102% | 105% | 106% | 103% | 111% | 95.7% | 95.1% | 86.6% | 103% | 100% | 96% | 115% | 99.5% | 85.1% | 114% | 125% | 126% | 131% | 123% | 112% | 108% | 100% | 99.1%
Clc1ccc(Nc2nnc(Cc3ccncc3)c3ccccc23)cc1 [Vatalanib] (1 nM) | 101% | 93.2% | 97.3% | 102% | 99.8% | 102% | 104% | 97.1% | 105% | 101% | 103% | 101% | 110% | 99.1% | 98.9% | 103% | 114% | 108% | 111% | 86.8% | 100% | 84.3% | 90.5% | 99.4% | 94.3% | 97.9% | 89.5% | 95.2% | 78.3% | 91% | 99.8% | 87.7% | 125% | 99.8% | 98.8% | 106% | 93.2%
Cc1ccc(C(=O)Nc2ccc(CN3CCN(C)CC3)c(C(F)(F)F)c2)cc1C#Cc1cnc2cccnn12 [Ponatinib] (0.1 nM) | 102% | 109% | 103% | 105% | 95.4% | 103% | 101% | 95.9% | 99.4% | 95.3% | 104% | 102% | 102% | 99.3% | 105% | 101% | 105% | 98% | 101% | 90.1% | 98.3% | 97.1% | 98.5% | 87.5% | 101% | 97.2% | 103% | 104% | 87.3% | 109% | 111% | 107% | 103% | 92.5% | 104% | 103% | 91.9%
CN[C@@H]1C[C@H]2O[C@@](C)([C@@H]1OC)n1c3ccccc3c3c4c(c5c6ccccc6n2c5c31)C(=O)N[C@H]4O [UCN-01] (1 nM) | 97.5% | 95.5% | 91.5% | 105% | 78.4% | 102% | 109% | 98.7% | 100% | 90.9% | 99% | 98% | 102% | 103% | 100% | 99.8% | 103% | 102% | 109% | 99.2% | 92% | 82.9% | 102% | 98.9% | 87.8% | 128% | 95.7% | 118% | 82.1% | 69.6% | 106% | 92% | 111% | 99.3% | 99.8% | 108% | 104%
CCC1=C[C@@H]2CN(C1)Cc1c([nH]c3ccccc13)[C@@](C(=O)OC)(c1cc3c(cc1OC)N(C)[C@H]1[C@@](O)(C(=O)OC)[C@H](OC(C)=O)[C@]4(CC)C=CCN5CC[C@]31[C@@H]54)C2 [Vinorelbine] (1 nM) | 97.4% | 106% | 106% | 108% | 102% | 101% | 98.9% | 101% | 107% | 95% | 98.1% | 97.2% | 108% | 107% | 96.6% | 102% | 101% | 96.5% | 95.2% | 104% | 109% | 94.2% | 106% | 98.1% | 98.1% | 102% | 96.5% | 90.2% | 90.8% | 109% | 113% | 93.3% | 101% | 86.9% | 99.3% | 95.6% | 95.2%
Cc1ccc(-n2nc(C(C)(C)C)cc2NC(=O)Nc2ccc(OCCN3CCOCC3)c3ccccc23)cc1 [Doramapimod] (1 nM) | 95.5% | 107% | 93.3% | 88.6% | 83.7% | 91.3% | 97.6% | 98.3% | 81.5% | 97.4% | 93% | 95.5% | 78.8% | 97.9% | 93.8% | 95% | 95% | 92.4% | 79.2% | 112% | 99.7% | 89.9% | 97.8% | 112% | 100% | 105% | 97.3% | 99.3% | 87% | 64.3% | 101% | 102% | 92.2% | 104% | 105% | 98.8% | 108%
